For 16 molecules, T/C results are on record in PubChem BioAssay AID256 (DTP/NCI, 2004).

For the experiment, the system named is CD2F1 mice, L1210 leukemia ip, survival T/C. The experiment in a line: NCI In Vivo Anticancer Drug Screen. Data for tumor model L1210 Leukemia (intraperitoneal) in CD2F1 (CDF1) mice. The following applies: higher = longer survival. In short, it runs like this: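 Transplantable tumor in mice; compound-treated vs vehicle-treated groups. Read-out = treated/control ratio of the measured endpoint.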

Setting [1] is: endpoint: mean survival time, dose: 12.5 mg/kg/injection, schedule: Q01DX009 (ip), vehicle: saline with Tween-80.
Where [2] appears, read: endpoint: mean survival time, dose: 100.0 mg/kg/injection, schedule: Q01DX009 (ip), vehicle: saline with Tween-80.
Where [3] appears, read: endpoint: mean survival time, dose: 100.0 mg/kg/injection, schedule: Q04DX003 (ip), vehicle: saline with Tween-80.
The mark [4] stands for this setting: endpoint: mean survival time, dose: 200.0 mg/kg/injection, schedule: Q04DX003 (ip), vehicle: saline with Tween-80.
Setting [5] is: endpoint: mean survival time, dose: 25.0 mg/kg/injection, schedule: Q01DX009 (ip), vehicle: saline with Tween-80.
Where [6] appears, read: endpoint: mean survival time, dose: 50.0 mg/kg/injection, schedule: Q01DX009 (ip), vehicle: saline with Tween-80.

Where “and” joins values, the source holds several entries; their conditions need not be identical. Identical values can stand only once. Toxic doses and inconclusive results are not listed.

Consider `CC1(C)N=C(N)N=C(N)N1c1ccc(CCCCc2ccc(S(=O)(=O)F)cc2Cl)c(Cl)c1`, for which the T/C is, setting by setting: (endpoint: mean survival time, dose: 2.59 mg/kg/injection, schedule: Q01DX009 (ip), vehicle: Klucel (hydroxypropylcellulose) (HPC)) 105 % of control; (endpoint: mean survival time, dose: 4.32 mg/kg/injection, schedule: Q01DX009 (ip), vehicle: Klucel (hydroxypropylcellulose) (HPC)) 105 % of control; (endpoint: mean survival time, dose: 7.2 mg/kg/injection, schedule: Q01DX009 (ip), vehicle: Klucel (hydroxypropylcellulose) (HPC)) 116 % of control; (endpoint: mean survival time, dose: 7.5 mg/kg/injection, schedule: Q01DX009 (ip), vehicle: Klucel (hydroxypropylcellulose) (HPC)) 100 % of control; under setting [1], 117 % of control; (endpoint: mean survival time, dose: 15.0 mg/kg/injection, schedule: Q01DX009 (ip), vehicle: Klucel (hydroxypropylcellulose) (HPC)) 104 % of control. Besides, the T/C is 113 % of control (endpoint: mean survival time, dose: 30.0 mg/kg/injection, schedule: Q01DX009 (ip), vehicle: Klucel (hydroxypropylcellulose) (HPC)); 103 % of control (endpoint: mean survival time, dose: 50.0 mg/kg/injection, schedule: Q04DX003 (ip), vehicle: saline); 115 % of control (endpoint: mean survival time, dose: 60.0 mg/kg/injection, schedule: Q01DX009 (ip), vehicle: Klucel (hydroxypropylcellulose) (HPC)); 104 % of control (endpoint: mean survival time, dose: 75.0 mg/kg/injection, schedule: Q04DX003 (ip), vehicle: saline); 97 % of control under setting [2]; 121 % of control and 105 % of control (endpoint: mean survival time, dose: 110.0 mg/kg/injection, schedule: Q04DX003 (ip), vehicle: saline). For the same molecule, the T/C reads like this: (endpoint: mean survival time, dose: 133.0 mg/kg/injection, schedule: Q04DX003 (ip), vehicle: saline with Tween-80) 158 % of control; (endpoint: mean survival time, dose: 300.0 mg/kg/injection, schedule: Q04DX003 (ip), vehicle: saline with Tween-80) 107 % of control; (endpoint: median survival time, dose: 27.0 mg/kg/injection, schedule: Q01DX009 (ip), vehicle: saline with Tween-80) 156 % of control; (endpoint: median survival time, dose: 40.0 mg/kg/injection, schedule: Q01DX009 (ip), vehicle: saline with Tween-80) 156 % of control and 162 % of control; (endpoint: median survival time, dose: 60.0 mg/kg/injection, schedule: Q01DX009 (ip), vehicle: saline with Tween-80) 158 % of control; (endpoint: median survival time, dose: 90.0 mg/kg/injection, schedule: Q01DX009 (ip), vehicle: saline with Tween-80) 168 % of control. The T/C was 167 % of control (endpoint: median survival time, dose: 200.0 mg/kg/injection, schedule: Q04DX003 (ip), vehicle: saline with Tween-80) and 164 % of control (endpoint: median survival time, dose: 225.0 mg/kg/injection, schedule: Q04DX003 (ip), vehicle: saline with Tween-80).
With `NNC(=O)c1nnc(NN)[nH]c1=O`, the T/C is, setting by setting: (endpoint: mean survival time, dose: 100.0 mg/kg/injection, schedule: Q01DX001 (ip), vehicle: carboxymethylcellulose (CMC)) 102 % of control; (endpoint: mean survival time, dose: 200.0 mg/kg/injection, schedule: Q01DX001 (ip), vehicle: carboxymethylcellulose (CMC)) 100 % of control; (endpoint: mean survival time, dose: 400.0 mg/kg/injection, schedule: Q01DX001 (ip), vehicle: carboxymethylcellulose (CMC)) 93 % of control.
In the case of `NCCNCCNCCNCCN` (tested in a mixture with another compound), the T/C runs as follows: (endpoint: mean survival time, dose: 50.0 mg/kg/injection, schedule: Q01DX009 (ip), vehicle: saline) 104 % of control; (endpoint: mean survival time, dose: 100.0 mg/kg/injection, schedule: Q01DX009 (ip), vehicle: saline) 111 % of control; under setting [3], 110 % of control; under setting [4], 105 % of control.
In the case of `C/C(=N\NC(N)=S)c1c(O)cc(C)[nH]c1=O`, the T/C is 97 % of control (endpoint: mean survival time, dose: 100.0 mg/kg/injection, schedule: Q01DX001 (ip), vehicle: saline); 101 % of control (endpoint: mean survival time, dose: 200.0 mg/kg/injection, schedule: Q01DX001 (ip), vehicle: saline); 98 % of control (endpoint: mean survival time, dose: 400.0 mg/kg/injection, schedule: Q01DX001 (ip), vehicle: saline).
For `O=C1c2ccccc2C(C2c3ccccc3C(=O)c3ccccc32)c2ccccc21`, the T/C by setting is: under setting [3], 110 % of control; under setting [4], 96 % of control; (endpoint: mean survival time, dose: 400.0 mg/kg/injection, schedule: Q04DX003 (ip), vehicle: saline with Tween-80) 100 % of control.
`CCN(CC)CCNc1cc(C)nc(/N=C(\N)Nc2ccc(Br)c(C(F)(F)F)c2)n1`: the T/C under setting [3] is 98 % of control.
As to `C1CCC2[N-]CCCC2C1.C1CCC2[N-]CCCC2C1.[Cl][Pt+2][Cl]` (centres undefined), the T/C is 102 % of control (endpoint: median survival time, dose: 3.12 mg/kg/injection, schedule: Q04DX003 (ip), vehicle: saline); 98 % of control (endpoint: median survival time, dose: 6.25 mg/kg/injection, schedule: Q04DX003 (ip), vehicle: saline); 101 % of control (endpoint: median survival time, dose: 12.5 mg/kg/injection, schedule: Q04DX003 (ip), vehicle: saline); 105 % of control (endpoint: median survival time, dose: 25.0 mg/kg/injection, schedule: Q04DX003 (ip), vehicle: saline); 103 % of control (endpoint: median survival time, dose: 50.0 mg/kg/injection, schedule: Q04DX003 (ip), vehicle: saline); 94 % of control (endpoint: median survival time, dose: 100.0 mg/kg/injection, schedule: Q04DX003 (ip), vehicle: saline). Moreover, the T/C (endpoint: median survival time, dose: 200.0 mg/kg/injection, schedule: Q04DX003 (ip), vehicle: saline) was 100 % of control.
In the case of `N#CC1(NC(=O)N(CCCl)N=O)CCCCC1`, the T/C was 119 % of control and 108 % of control (endpoint: mean survival time, dose: 6.25 mg/kg/injection, schedule: Q01DX001 (ip), vehicle: distilled water + Tween-80); 150 % of control (endpoint: mean survival time, dose: 25.0 mg/kg/injection, schedule: Q01DX001 (ip), vehicle: distilled water + Tween-80); 172 % of control and 258 % of control (endpoint: mean survival time, dose: 50.0 mg/kg/injection, schedule: Q01DX001 (ip), vehicle: distilled water + Tween-80).
For `NC(=O)c1csc(C2OC(CO)CC2O)n1` (centres undefined), the T/C is, setting by setting: (endpoint: median survival time, dose: 37.5 mg/kg/injection, schedule: Q01DX005 (ip), vehicle: water) 92 % of control; (endpoint: median survival time, dose: 75.0 mg/kg/injection, schedule: Q01DX005 (ip), vehicle: water) 107 % of control; (endpoint: median survival time, dose: 125.0 mg/kg/injection, schedule: Q01DX005 (ip), vehicle: water) 104 % of control; (endpoint: median survival time, dose: 150.0 mg/kg/injection, schedule: Q01DX005 (ip), vehicle: water) 102 % of control; (endpoint: median survival time, dose: 250.0 mg/kg/injection, schedule: Q01DX005 (ip), vehicle: water) 116 % of control; (endpoint: median survival time, dose: 300.0 mg/kg/injection, schedule: Q01DX005 (ip), vehicle: water) 109 % of control. Besides, the T/C (endpoint: median survival time, dose: 500.0 mg/kg/injection, schedule: Q01DX005 (ip), vehicle: water) was 121 % of control.
Regarding `CC(Cc1ccccc1)NC(C#N)c1ccccc1` (centres undefined), the T/C is 102 % of control under setting [1], 98 % of control under setting [5] and 101 % of control under setting [6].
As for `C=C(C(=O)OC)N1C(=O)CC(C)C1=O` (centres undefined), the T/C is 97 % of control (endpoint: mean survival time, dose: 12.5 mg/kg/injection, schedule: Q04DX002 (ip), vehicle: saline with Tween-80); 108 % of control (endpoint: mean survival time, dose: 25.0 mg/kg/injection, schedule: Q04DX002 (ip), vehicle: saline with Tween-80); 90 % of control (endpoint: mean survival time, dose: 50.0 mg/kg/injection, schedule: Q04DX002 (ip), vehicle: saline with Tween-80); 86 % of control (endpoint: mean survival time, dose: 100.0 mg/kg/injection, schedule: Q04DX002 (ip), vehicle: saline with Tween-80).
With `CCCCC(CCCC)c1ccccn1`, the T/C is, setting by setting: (endpoint: mean survival time, dose: 6.25 mg/kg/injection, schedule: Q01DX009 (ip), vehicle: saline with Tween-80) 91 % of control; under setting [1], 96 % of control; under setting [5], 96 % of control.
`NC(=O)c1ccccc1NC(=O)Nc1ccc(Cl)c(C(F)(F)F)c1`: the T/C runs as follows: under setting [6], 87 % of control; under setting [2], 96 % of control; (endpoint: mean survival time, dose: 200.0 mg/kg/injection, schedule: Q01DX009 (ip), vehicle: saline with Tween-80) 93 % of control.
As to `CC1=CC(=O)[C@@H](O)[C@]2(C)[C@H]3[C@@]4(O)OC[C@]35[C@H]([C@@H](C)[C@H]4O)[C@@H](OC(=O)c3ccccc3)C(=O)O[C@@H]5C[C@@H]12`, the T/C runs as follows: (endpoint: mean survival time, dose: 0.25 mg/kg/injection, schedule: Q01DX009 (ip), vehicle: saline with Tween-80) 105 % of control; (endpoint: mean survival time, dose: 0.5 mg/kg/injection, schedule: Q01DX009 (ip), vehicle: saline with Tween-80) 100 % of control; (endpoint: mean survival time, dose: 1.0 mg/kg/injection, schedule: Q01DX009 (ip), vehicle: saline with Tween-80) 100 % of control; (endpoint: mean survival time, dose: 2.0 mg/kg/injection, schedule: Q01DX009 (ip), vehicle: saline with Tween-80) 105 % of control.
Take `O=C1CCC/C1=C/c1ccco1`: the T/C is 93 % of control under setting [5]; 95 % of control under setting [6]; 86 % of control and 90 % of control under setting [2].
For the molecule `O=C1NC2CC3CC(C2)CC1C3`, the T/C runs as follows: (endpoint: mean survival time, dose: 12.5 mg/kg/injection, schedule: Q04DX003 (ip), vehicle: alcohol) 100 % of control; (endpoint: mean survival time, dose: 25.0 mg/kg/injection, schedule: Q04DX003 (ip), vehicle: alcohol) 92 % of control; (endpoint: mean survival time, dose: 50.0 mg/kg/injection, schedule: Q04DX003 (ip), vehicle: alcohol) 97 % of control.
